Converted amounts (≈) assume the structure as drawn. Where two headings read alike, the source gives them in different places.
Key:
C. albicans [1] = assay: Antifungal activity (MIC) of free versus liposomal polyenes; type: cell-based
Procedure: The antifungal activity of free-verses liposomal-small polyenes was determined in vivo. These small polyenes included filipin, lagosin and natamycin.
The in vivo toxicity of liposomal small polyenes was evaluated in groups of 8 Hale-Stone mice (6-8 weeks old, body weight =20-25g; University of Texas Science Park, Bastrop, Tex.). Liposomal polyenes were prepared following the protocol set forth in Example 2. Each liposomal-small polyene formulated and evaluated in this study, listed in table 6, was administered to a group of normal and a group of infected mice. These infected mice were prepared by injection with 0.2 ml. of C. albicans according to the protocol set forth in Example 6.
The data on MIC of various liposomal-mepartricin preparations in normal and infected mice is presented for each of the small polyenes (filipin, lagasin natamysin and nystatin) and large polyenes in Table 6.

HTLV-III/LAV = conditions: monocyte-related cell line H9; Schaffner et al. (1986); cited from earlier work
human RBCs = assay: In vitro toxicity: lysis of human red blood cells (hemoglobin release at 540 nm); conditions: 45 min
Source text: Lysis of human red blood cells (RBCs) was quantitated by measuring the release of hemoglobin in the supernatants at 540 nm, as described previously (Mehta et al., (1984) Biochem. Biophys, Acta., 770:230-234). […] Release of hemoglobin by hypotonic lysis of the same number of human RBCs by water was taken as 100% positive control, while cells treated with PBS were taken as negative controls.
Lysis of human red blood cells (RBCs) was quantitated by measuring the release of hemoglobin in the supernatants at 540 nm, as described previously (Mehta et al., Biochem. Biophys, Acta., Vol. 770, pp. 230-234 (1984)). […] Release of hemoglobin by hypotonic lysis of the same number of human RBCs by water was taken as 100% positive control, while cells treated with PBS were taken as negative controls.
Lysis of human red blood cells (RBCs) was quantitated by measuring the release of hemoglobin in the supernatants at 540 nm, as described previously (Mehta et al., (1984) Biochem. Biophys. Acta., 770:230-234). […] Release of hemoglobin by hypotonic lysis of the same number of human RBCs by water was taken as 100% positive control, while cells treated with PBS were taken as negative controls.
Lysis of human red blood cells (RBCs) was quantitated by measuring the release of hemoglobin in the supernatants at 540 nm, as described previously (Mehta, et al. (1984) Biochem. Biophys. Acta, 770:230-234). […]

[2] = system: Candida albicans (strain 336); assay: In vitro fungal inhibition (MIC), twofold serial dilution; type: cell-based
Procedure: The antifungal activity of free- verses liposomalhamycin against Candida albicans (strain 336) was determined in vitro. All strains of yeast were grown overnight at 37° C. on Sabouraud dextrose agar (SDA) plates. All molds were grown at 30° C. on SDA for 3 to 10 days prior to collection of spores. The inoculum was then processed for susceptibility testing as described earlier (Hopfer et al. (1984), Antimicrob. Agents Chemotherap., 25:387-389). A twofold serial dilutron method (Shadomy et al., In E. H. Lennette, et al., (eds.) Manual of Clinical Microbiology, 3rd ed. American Society for Microbiology, Washington, D.C. , pp. 647-653 (1980)) adapted to microtiter plates was used to determine the minimal inhibitory concentration (MIC) of the drugs.
The antifungal activity of free- versus liposomal-lucensomycin against Candida albicans (Strain 336) was determined in vitro. […] The MIC of free-lucensomycin was compared with that of liposomal-lucensomycin.

[3] = principal sterol of fungal versus human cell membranes; cited from earlier work
C. albicans [4] = assay: Single dose therapy of disseminated Candida albicans infection in mice; type: in vivo; conditions: free-hamycin from 5 microgram/mouse, versus control untreated group
Procedure: Hale-Stoner mice, six to eight weeks old (body weight, 20-25 g) were purchased from The University of Texas Science Park (Bastrop, TX). The mice (eight per group) were injected with 0.2 ml of C. albicans cell suspension containing 7×10^5 colony-forming units (cfu) via the tail vein. This concentration of cells was consistent in producing a disseminated infection after 48 hr, affecting primarily the liver, spleen, lungs and kidneys.
Mice were infected with C. albicans as described in Example 7. […] The survival of the animals in each group was recorded.

Molecule: C[C@@H]1[C@H](O)[C@@H](C)/C=C/C=C/C=C/C=C/C=C/C=C/C=C/[C@H](O[C@@H]2O[C@H](C)[C@@H](O)[C@H](N)[C@@H]2O)C[C@@H]2O[C@](O)(C[C@@H](O)C[C@@H](O)[C@H](O)CC[C@@H](O)C[C@@H](O)CC(=O)O[C@H]1C)C[C@H](O)[C@H]2C(=O)O [Amphotericin B]
- MIC, free (C. albicans [1]): 0.4 µg/mL (≈ 0.433 µM)
- Replication of HTLV-III/LAV (in words) (HTLV-III/LAV): inhibited

Molecule: COc1cc2c(c3oc(-c4ccccc4)cc(=O)c13)C=CC(C)(C)O2 [Candidin, candidin]
- MIC, free (C. albicans [1]): 5.0 µg/mL (≈ 15 µM)

Molecule: CCCCC[C@@H](O)[C@H]1C(=O)O[C@H](C)[C@@H](O)/C=C/C=C/C=C/C=C/C=C(\C)[C@@H](O)C[C@H](O)C[C@H](O)C[C@H](O)C[C@H](O)C[C@H](O)C[C@@H]1O [Filipin, filipin]
- MIC, free (C. albicans [1]): 8.0 to 16.0 µg/mL

Molecule: CCCCC[C@@H](O)[C@H]1C(=O)O[C@H](C)[C@@H](O)/C=C/C=C/C=C/C=C/C=C(\C)[C@@H](O)[C@H](O)[C@H](O)C[C@H](O)C[C@H](O)C[C@H](O)C[C@H](O)C[C@@H]1O [Lagosin, lagosin]
- MIC, free (C. albicans [1]): 4.0 µg/mL (≈ 5.96 µM)

Molecule: CCCCC1C/C=C/C=C/C=C/C=C/C(O[C@@H]2O[C@H](C)[C@@H](O)[C@H](N)[C@@H]2O)CC2OC(O)(CC(O)CC3OC3/C=C/C(=O)O1)CC(O)C2C(=O)O (some centres unmarked) [Lucensomycin, lucensomycin]
- Lysis of human RBCs (human RBCs; 10 mg/ml, 37° C.): 70%
- Lysis of human RBCs (human RBCs; 30 mg/ml, liposomes without cholesterol): approximately 100%
- Antifungal activity (in words) ([2]; in vitro, with or without cholesterol where stated): high antifungal activity
- Maximum solubility (DMFA): 10000 µg/mL
- Solubility in DMFA at 1 mg/ml (DMFA, 1 mg/ml): Yes
- Maximum solubility (DMSO): 20000 µg/mL
- Solubility in DMSO at 1 mg/ml (DMSO, 1 mg/ml): Yes
- Maximum solubility (methanol): 500 µg/mL
- Solubility in methanol at 1 mg/ml (methanol, 1 mg/ml): Partial
- Solubility in water/saline at 1 mg/ml (water/saline, 1 mg/ml): nil
- Avidity for ergosterol compared to cholesterol (in words) [3]: greater avidity for ergosterol

Molecule: C[C@@H]1C/C=C/C=C/C=C/C=C/[C@H](O[C@@H]2O[C@H](C)[C@@H](O)[C@H](N)[C@@H]2O)C[C@@H]2O[C@](O)(C[C@@H](O)C[C@H]3O[C@@H]3/C=C/C(=O)O1)C[C@H](O)[C@H]2C(=O)O [Natamycin, natamycin]
- MIC, free (C. albicans [1]): 4.0 µg/mL (≈ 6.01 µM)

Molecule: C[C@@H]1[C@H](O)[C@@H](C)/C=C/C=C/CC/C=C/C=C/C=C/C=C/C(O[C@H]2O[C@H](C)[C@@H](O)[C@H](N)[C@@H]2O)CC2O[C@](O)(CC(O)C(O)CCC(O)CC(O)CC(O)CC(=O)O[C@H]1C)CC(O)C2C(=O)O (some centres unmarked) [Nystatin]
- MIC, free (C. albicans [1]): 1.0 µg/mL (≈ 1.08 µM)

Molecule: COC(=O)[C@H]1[C@@H]2C[C@@H](O[C@@H]3O[C@H](C)[C@@H](O)[C@H](N)[C@@H]3O)/C=C/C=C/C=C/C=C/C=C/C=C/C=C/[C@H](C)[C@@H](O)[C@@H](C)[C@H](C)OC(=O)C[C@H](O)C[C@H](O)CC[C@@H](O)[C@H](O)C[C@H](O)C[C@](O)(C[C@@H]1O)O2 [amphotericin B methyl ester ascorbate]
- Replication of HTLV-III/LAV (in words) (HTLV-III/LAV): inhibited

Molecule: hamycin
- MIC ([2]; Candida albicans strain 336, in vitro): 0.25 microgram/ml
- Survival of infected mice (in words) (C. albicans [4]): None of the doses tested improved the survival of infected mice
- Avidity for ergosterol compared to cholesterol (in words) [3]: greater avidity for ergosterol

Molecule: mepartricin
- MIC, free (C. albicans [1]): 2.0 to 4.0 µg/mL

— patent publication US5032404A, “Lipsome-incorporation of polyenes” (priority 1989, dated 1991)
